This assay deals with MOLM-13 xenograft model. Put plainly: Disseminated MOLM-13 xenograft survival study. The format is in vivo, mice. The following applies: for Median survival: MOLM-13, NOD/SCID mice, vehicle=19 days; for survival compared to vehicle alone: MOLM-13. The procedure: LEED models oral administration of AZA, while HELD models intravenous or subcutaneous administration of AZA.
The animals were fed ad libitum water (reverse osmosis, 1 ppm Cl), and NIH 31 Modified and Irradiated Lab Diet® consisting of 18.0% crude protein, 5.0% crude fat, and 5.0% crude fiber. The mice were housed on irradiated Enrich-o'cobs™ Laboratory Animal Bedding in static microisolators on a 12-hour light cycle at 20-22° C. (68-72° F.) and 40-60% humidity.
On each day of dosing, an appropriate amount of gilteritinib was dissolved in 0.5% methylcellulose in DI water to yield a dosing solution at 0.4 mg/mL. Each week, an appropriate amount of venetoclax was dissolved in 10% ethanol:30% PEG400:60% phosal 50 propylene glycol to yield a dosing solution at 10 mg/mL. […] Each test mouse received 5×10^6 MOLM-13 cells or 10^7 MV4-11 cells (0.2 mL cell suspension) by tail vein injection. Dosing was initiated three days after tumor cell inoculation, which was designated as Day 1 of the study. NOD/SCID mice (n=9-12/group) were randomized according to body weight and dosed. […] Vehicle was administered both IP and PO. The dosing volume for all treatments was 10 mL/kg, scaled to the weight of each individual animal.
Animals were monitored individually for an endpoint of moribundity due to progression of the leukemia. Full hind limb paralysis, severe ocular proptosis, or moribundity was considered sufficient for euthanasia due to tumor progression. Moribund animals were defined as sick animals unable to reach food and water. These deaths were classified as death on survival study. The time to endpoint (TTE), in days, was recorded for each mouse that died of its disease or was euthanized due to extensive tumor progression. […] An animal classified as having died from treatment-related (TR) causes was assigned a TTE value equal to the day of death. An animal classified as having died from non-treatment-related (NTR) causes, or used for sampling before endpoint, was excluded from TTE calculations and all further analyses. The median TTE value was calculated for each group. The median TTE of treated mice was expressed as a percentage of the median TTE of the control mice (% T/C), and the increase in life span (ILS) was calculated as: ILS=% T/C−100%, where T=median TTE treated, and C=median TTE control. Thus, if T=C, ILS=0%.
Animals were weighed daily on Days 1-5, then twice per week until the completion of the study. […] Individual body weight loss was monitored as per protocol and any animal that exceeded the limits for acceptable body weight loss was euthanized. Group mean body weight loss also was monitored as per protocol. Dosing was suspended in any group that exceeded the limits for acceptable mean body weight loss. If mean body weight recovered, then dosing may be resumed in that group, but at a lower dosage or less frequent dosing schedule. Acceptable toxicity for the maximum tolerated dose was defined as a group mean body-weight loss of less than 20% during the study and not more than one TR death among ten treated animals. […] A death was classified as NTR if there was no evidence that death was related to treatment side effects or tumor progression. Non-treatment-related deaths may be further characterized based on cause of death. A death may be classified as NTRa if it resulted from an accident or human error. A death may be classified as NTRu if the cause of death is unknown and there is no available evidence of death related to treatment side effects, metastasis, accident or human error, although death due to these etiologies cannot be excluded. Survival was analyzed by the Kaplan-Meier method, based on TTE values. The logrank (Mantel-Cox) and Gehan-Breslow-Wilcoxon tests determined the significance of the difference between the overall survival experiences (survival curves) of two groups, based on TTE values.
These experiments were repeated with a second FLT3-ITD cell line, MOLM-13.

Data on one molecule can be found in patent US12447171B2 (CELGENE QUANTICEL RESEARCH, INC., priority 2019, dated 2025).

As to `Nc1ncn([C@@H]2O[C@H](CO)[C@@H](O)[C@H]2O)c(=O)n1` [5-azacytidine, 4-amino-1-B-D-ribofuranosyl-1,3,5-triazin-2(1H)-one], the Median survival reads like this: (HELD 5-azacytidine 3 mg/kg IP qd×5, alone or with midostaurin 100, gilteritinib 4 or venetoclax 100 mg/kg PO qd×21) 32 days; (LEED 5-azacytidine 1 mg/kg IP qd×15, alone or with midostaurin 100, gilteritinib 4 or venetoclax 100 mg/kg PO qd×21) 36 days. Further, the “survival compared to vehicle alone” value is recorded as “statistically significantly increases in survival” (HELD 5-azacytidine 3 mg/kg IP qd×5, alone or in combination) and “statistically significantly increases in survival” (LEED 5-azacytidine 1 mg/kg IP qd×15, alone or in combination).
